This test deals with HIV-1 vectors bearing the S230N IN mutant. The test is described as follows: Single-round HIV-1 replication antiviral assay, S230N IN mutant. The format is cell-based. The settings on record: for EC50: Human immunodeficiency virus 1, HOS, 48 h, read-out: EC50, antiviral potency, S230N IN mutant. The text has this:
To further evaluate the antiviral activities of select compounds, we determined their EC50 values against the IN mutant S230N, which has been selected in vitro against an early Merck INSTI L810,830, a prototype for naphthyridine analogs.
Human embryonic kidney cell culture cell line 293 was acquired from the American Type Culture Collection (ATCC). The human osteosarcoma cell line, HOS, was obtained from Dr. Richard Schwartz (Michigan State University, East Lansing, MI, USA) and grown in Dulbecco’s modified Eagle’s medium (Invitrogen, Carlsbad, CA, USA) supplemented with 5% (v/v) fetal bovine serum, 5% newborn calf serum, and penicillin (50 units/mL) plus streptomycin (50 µg/mL; Quality Biological, Gaithersburg, MD, USA). The transfection vector, pNLNgoMIVR-ΔLUC was made from pNLNgoMIVR-ΔEnv.HSA by removing the HSA reporter gene and replacing it with a luciferase reporter gene between the NotI and XhoI restriction sites. To produce the new IN mutant S230N used in this study, the IN open reading frame was removed from pNLNgoMIVR-ΔENV.LUC by digestion with KpnI and SalI, and the resulting fragment was inserted between the KpnI and SalI sites of pBluescript KS+. Using that construct as the wild-type template, we prepared the following HIV-1 IN mutant S230N using the QuikChange II XL site-directed mutagenesis kit (Agilent Technologies, Santa Clara, CA, USA) protocol. The following sense oligonucleotides were used with matching cognate antisense oligonucleotides (not shown) (Integrated DNA Technologies, Coralville, IA, USA) in the mutagenesis: S230N 5′-[…]-3′. The DNA sequence of the IN mutant S230N construct was verified independently by DNA sequence determination. The mutated IN coding sequences from pBluescript KS+ were then subcloned into pNLNgoMIVR-ΔEnv.LUC (between the KpnI and SalI sites) to produce mutant HIV-1 constructs, which were also checked by DNA sequencing. […]. On the day prior to transfection, 293 cells were plated on 100 mm diameter dishes at a density of 1.5 × 10^6 cells per plate. Next, 293 cells were transfected with 16 µg of pNLNgoMIVR^-ΔLUC and 4 µg of pHCMV-g (obtained from Dr. Jane Burns, University of California, San Diego) using the calcium phosphate method. At approximately 6 h after the calcium phosphate precipitate was added, 293 cells were washed twice with phosphate-buffered saline (PBS) and incubated with fresh media for 48 h. The virus-containing supernatants were then harvested, clarified by low-speed centrifugation, filtrated, and diluted for preparation in antiviral infection assays. On the day prior to the screen, HOS cells were seeded in a 96-well luminescence cell culture plate at a density of 4000 cells in 100 µL per well. On the day of the screen for cellular cytotoxicity determination, cells were treated with compounds from a concentration range of 250 µM to 0.05 µM and then incubated at 37 °C for 48 h. On the day of the screen for antiviral activity infection assays, cells were treated with compounds from a concentration range of 5 µM to 0.0001 µM using 11 serial dilutions and then incubated at 37 °C for 3 h. After compound incorporation and activation in the cell, 100 µL of virus-stock (WT or mutant) diluted to achieve a luciferase signal between 0.2 and 1.5 Relative Luciferase Units (RLUs) was added to each well and further incubated at 37 °C for 48 h. Cellular cytotoxicity was measured by using the ATP Lite Luminescence detection system and monitored by adding 50 µL of cell lysis buffer from the Luminescence ATP detection assay to each well followed by mixing at 700 rpm at room temperature for 5 min using a compact thermomixer. […]

The term EC50 denotes the concentration needed to bring the measured effect to its halfway point.

Take `O=C(NCc1ccc(F)cc1F)c1cn2ccn(CCCCCCO)c(=O)c2c(O)c1=O` [Compound 6c, N-(2,4-Difluorobenzyl)-9-hydroxy-2-(6-hydroxyhexyl)-1,8-dioxo-1,8-dihydro-2H-pyrido [1,2-a]pyrazine-7-carboxamide]: the EC50 worked out at 0.0093 µM.
Regarding `O=C(NCc1ccc(F)cc1F)c1cn2ccn(CCCCCO)c(=O)c2c(O)c1=O` [Compound 6d, N-(2,4-Difluorobenzyl)-9-hydroxy-2-(5-hydroxypentyl)-1,8-dioxo-1,8-dihydro-2H-pyrido [1,2-a]pyrazine-7-carboxamide], the EC50 amounted to 0.0154 µM.
As for `O=C(NCc1ccc(F)cc1F)c1cn2ccn(CCCCO)c(=O)c2c(O)c1=O` [Compound 6e, N-(2,4-Difluorobenzyl)-9-hydroxy-2-(4-hydroxybutyl)-1,8-dioxo-1,8-dihydro-2H-pyrido [1,2-a]pyrazine-7-carboxamide], the concentration for a half-maximal effect (EC50) worked out at 0.0307 µM.
Still for that read-out and setting: the same measure for `O=C(NCc1ccc(F)cc1F)c1cn2c(c(O)c1=O)C(=O)N(CCCCCCO)CC2` [Compound 7c, N-(2,4-Difluorobenzyl)-9-hydroxy-2-(6-hydroxyhexyl)-1,8-dioxo-1,3,4,8-tetrahydro-2H-pyrido [1,2-a]pyrazine-7-carboxamide]: 0.038 µM.
On to `O=C(NCc1ccc(F)cc1F)c1cn2c(c(O)c1=O)C(=O)N(CCCCO)CC2` [Compound 7e, N-(2,4-Difluorobenzyl)-9-hydroxy-2-(4-hydroxybutyl)-1,8-dioxo-1,3,4,8-tetrahydro-2H-pyrido [1,2-a]pyrazine-7-carboxamide], for which the EC50 is 0.101 µM. For the same compound, the “Ratio of the antiviral potencies after and before hydrogenation (S230N)” value (EC50 of saturated 7 over EC50 of unsaturated 6, S230N IN) is 3.28.

These data come from PMC9919513, “A Practical Approach to Bicyclic Carbamoyl Pyridones with Application to the Synthesis of HIV-1 Integrase Strand Transfer Inhibitors” (Molecules, 2023).
